Experiment [1] relates to Bacillus subtilis #10107. The experiment in a line: Antibacterial activity, minimum inhibition concentration by agar dilution method. To be noted: agar dilution method at pH 7.0. It is filed as cell-based. Here is the method: Antibacterial activity of the compound (I) against Bacillus subtilis #10107 [Minimum Inhibition Concentration (MIC; µg/ml)] is shown in Table 2. Minimum Inhibition Concentration was determined by agar dilution method at pH 7.0.

Experiment [2] relates to HeLaS3 cells. The experiment in a line: Human uterine cervix carcinoma (HeLaS3) growth inhibition test, neutral red staining. It is filed as cell-based. As to conditions: HeLa S3, 72 hours culture with sample, absorbance at 550 nm. How it is done:
Human uterine cervix carcinoma (HeLaS3) growth inhibition test;
Each 0.1 ml of HeLaS3 cells which had been prepared to 3 x 10^4/ml using a medium (referred to as Medium A hereinafter) consisted of MEM medium, 2 mM glutamine and 10% bovine fetal serum was distributed in each well of 96 well-microtiter plate. The plate was cultured at 37 °C for 20 hours in a CO2 gas incubator, each 0.05 ml of samples (test compounds) which had been appropriately diluted with Medium A was added thereto and the mixture was cultured at 37 °C for 72 hours in a CO2 gas incubator. Supernatant was removed, each 0.1 ml of Medium A containing 0.02% neutral red was added to the residue, the mixture was cultured at 37 °C for 1 hour in a CO2 gas incubator and the cells were stained. Supernatant was removed and the residue was washed once with saline. Then, the pigment was extracted with 0.001N hydrochloric acid/30% ethanol and the absorbance at 550 nm was measured with a microplatereader.

Experiment [3] relates to estrogen dependent human mammary cancer MCF-7. The experiment in a line: Antitumor effects against estrogen dependent human mammary cancer MCF-7 transplanted subcutaneously in nude mice. It is filed as in vivo, female BALB/C-nu/nu mice. As to conditions: orally, five days per week for four weeks, ratio of V/V0 of treated group to control group. How it is done:
Antitumor effects against estrogen dependent human mammary cancer MCF-7
Tumor strips (2mm x 2 mm x 2mm) of human hormone dependent mammary cancer MCF-7 were transplanted subcutaneously in the ventral part of female BALB/C-nu/nu mice (Nihon Crea), 7-9 weeks age. For promoting the growth of tumor, 12.5 µg of estradiol was intramuscularlly administered three times in the femoral region on the date of transplantation and 7 and 14 days after transplantation. 7 Days after transplantation, mice the tumor volume of which increased to 10-100 mm^3 were selected, and test compounds were orally administered repeatedly for five days per a week, for four weeks, at five animals per group. Length and breadth of the tumor were determined, and the tumor volumes were calculated by means of ellipsoid approximation according to the following equation: (Tumor volume […]= {Length (mm) x [Breadth (mm)])^2 }/2 [formula]
The tumor volume (V0) at initial administration was determined. The tumor volume (V) was determined after initiation to calculate V/V0 from which the ratio (T/C), that is, the ratio of V/V0 value of treated group relative to that of control group was obtained.

In experiment [4] the test system is MCF-7 cells. The experiment in a line: Human mammary cancer (MCF-7) growth inhibition test, neutral red staining. It is filed as cell-based. As to conditions: MCF7, medium with 10^-8M estradiol, 72 hours culture with sample. Here is the method:
Human mammary cancer (MCF-7) growth inhibition test;
Each 0.1 ml of MCF-7 cells which had been prepared to 5 x 10^4/ml using a medium (referred to as Medium B hereinafter) prepared by adding 10% bovine fetal serum, 10^-8M estradiol (manufactured by Sigma), 100 units/ml penicillin and 100 µg/ml streptomycin to medium RPMI1640 was distributed in each well of 96 well-microtiter plate. The plate was cultured at 37 °C for 20 hours in a CO2 gas incubator, each 0.05 ml of samples (test compounds) which had been appropriately diluted with Medium B was added thereto and the mixture was cultured at 37 °C for 72 hours in a CO2 gas incubator. Supernatant was removed, each 0.1 ml of Medium B containing 0.02% neutral red was added to the residue, the mixture was cultured at 37 °C for 1 hour in a CO2 gas incubator and the cells were stained. IC50 was calculated according to the same manner as that in Test 2.

Converted amounts (≈) assume the structure as drawn.

In experiment [1], `NCCCNc1ccc(-c2cc(=O)c3c(N)c(F)cc(F)c3o2)cc1` [Compound 24, 5-Amino-2-[4-[(3-aminopropyl)amino]phenyl]-6,8-difluoro-4H-1-benzopyran-4-one] gave an MIC of 2.6 µg/mL (≈ 7.53 µM). The same compound came in with an IC50 in experiment [2] of 3.4 µM.

`NCCCNc1ccc(-c2cc(=O)c3c(N)c(F)ccc3o2)cc1` [Compound 16, 5-Amino-2-[4-[(3-aminopropyl)amino]phenyl]-6-fluoro-4H-1-benzopyran-4-one]: the minimum inhibitory concentration (MIC) in experiment [1] is 5.2 µg/mL (≈ 15.9 µM). This compound also had an IC50 in experiment [2] of 5.8 µM.

Turning to `Nc1ccc(-c2cc(=O)c3c(N)c(F)cc(F)c3o2)cc1F` [Compound 26, 5-Amino-2-(4-amino-3-fluorophenyl)-6,8-difluoro-4H-1-benzopyran-4-one], in experiment [2], it took 26 µM to reach half-maximal inhibition (IC50). The T/C in experiment [3] (Dose 25 mg/kg, Date 29) is reported as 0.45.

As for `Nc1c(F)cc(F)c2oc(-c3ccc(NCCCCCCN4CCCC4)c(F)c3)cc(=O)c12` [Compound 54, 5-Amino-6,8-difluoro-2-[3-fluoro-4-[6-(pyrrolidin-1-yl)hexylamino]phenyl]-4H-1-benzopyran-4-one], the IC50 in experiment [2] stood at 6.1 µM; in experiment [4], 5.9 µM.

Consider `Nc1ccc(-c2cc(=O)c3c(N)c(F)cc(F)c3o2)cc1` [Compound 12, 5-Amino-2-(4-aminophenyl)-6,8-difluoro-4H-1-benzopyran-4-one], for which the IC50 in experiment [2] worked out at 10 µM. Also, the T/C in experiment [3] (Dose 6.3 mg/kg, Date 22) is 0.45.

In the case of `Nc1c(F)cc(F)c2oc(-c3ccc(NCCCCCCn4ccnc4)c(F)c3)cc(=O)c12` [Compound 52, 5-Amino-6,8-difluoro-2-[3-fluoro-4-[6-(imidazol-1-yl)hexylamino]phenyl]-4H-1-benzopyran-4-one], the half-inhibitory concentration (IC50) came out at 4.4 µM in experiment [2] and 2 µM in experiment [4].

Take `NCCCNc1ccc(-c2cc(=O)c3c(N)c(F)cc(F)c3o2)cc1F` [Compound 30, 5-Amino-2-[4-(3-aminopropylamino)-3-fluorophenyl]-6,8-difluoro-4H-1-benzopyran-4-one]: the IC50 in experiment [2] came out at 14 µM; in experiment [4], 0.039 µM.

As a reminder, the MIC is the lowest concentration found to suppress growth. A higher MIC goes with a need for much substance. In general, IC50 refers to the concentration that inhibits the measured activity by half.
